Molecular target: T1, Angiotensin II Receptor (Bos taurus, UniProt P25104)
T1 construct: The brownish tissue forming the adrenal cortex is scraped off and finely minced with scissors before homogenization; tissue Maxwell-Cohen (local slaughter house); host or cells: beef adrenal cortex, microsomal membranes (100,000×g pellet)
T1 sequence (P25104 1-359): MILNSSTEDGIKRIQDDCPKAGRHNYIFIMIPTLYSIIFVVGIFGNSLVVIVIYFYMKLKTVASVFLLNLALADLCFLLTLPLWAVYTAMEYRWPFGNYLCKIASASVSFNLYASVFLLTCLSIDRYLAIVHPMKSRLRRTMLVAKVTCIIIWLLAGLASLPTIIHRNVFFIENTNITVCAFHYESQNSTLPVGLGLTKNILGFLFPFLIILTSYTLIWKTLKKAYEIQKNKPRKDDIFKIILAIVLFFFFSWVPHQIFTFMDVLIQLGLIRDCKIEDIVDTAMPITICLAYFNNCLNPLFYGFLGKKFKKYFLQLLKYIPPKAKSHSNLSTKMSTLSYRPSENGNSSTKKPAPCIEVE
Experiment: Receptor binding assay: displacement of [125I](Sar1,Ile8)AngII from beef adrenal cortex microsomal membranes
Excerpt: Beef adrenals are obtained from a local slaughter house (Maxwell-Cohen). [^125 I](Sar^1,-Ile^8)AngII, S.A. 2200 Ci/mmole, is purchased from Dupont (NEN®, Boston, Mass.). All unlabeled AngII analogs, dimethylsulfoxide (DMSO), nucleotides, bovine serum albumin (BSA) are purchased from Sigma Chemical Co., St. Louis, Mo. U.S.A.
Approximately sixteen (16) to twenty (20) beef adrenal glands are processed as follows: fresh adrenal glands received on crushed ice are cleaned of fatty tissues and the tough membranes encapsulating the glands are removed and discarded. The brownish tissue forming the adrenal cortex is scraped off and finely minced with scissors before homogenization. Care is taken to avoid contamination with medullary tissue during dissection. The scraped cortices are suspended in twenty volumes of an ice-cold buffer medium consisting of 10 mM Tris.HCl (pH 7.4 at 22° C.) and containing 1.0 mM EDTA and 0.2M sucrose. Unless otherwise indicated, all subsequent operation are done at 4° C. […] The homogenate is centrifuged first at low speed (3,000×g) for 10 min. […] A 100 ul aliquot is withdrawn and the protein content of the preparation is determined by the Lowry's method (Lowry, O. H., Rosebrough, N. F., Farr, A. L. and Randall, R. J., Protein measurement with Folin phenol reagent. J. Biol. Chem., […], 265-275, 1951). […]

CCCCc1nc2ccc(COc3ccccc3)cc2c(=O)n1Cc1ccc(-c2ccccc2-c2nnn[nH]2)cc1 [Example 36, 2-Butyl-6-(phenoxymethyl)-3-[[2'-(1H-tetrazol-5-yl) [1,1'-biphenyl]-4-yl]methyl]-4(3H)-quinazolinone]
IC50: 130 nM

Source: patent US5284852A, “Angiotensin II receptor blocking 2,3,6-substituted quinazolinones” (American Cyanamid Company, priority 1993, dated 1994)
